The values below come from PMC4635503, “High-affinity nitrate/nitrite transporters NrtA and NrtB of Aspergillus nidulans exhibit high specificity and different inhibitor sensitivity” (Microbiology, 2015).

The test system of assay [1] is nitrate transport by NrtA and NrtB. In words: Net nitrate transport inhibition assays, strain not specified. It is filed as cell-based, Aspergillus nidulans. The conditions noted are these: net nitrate transport inhibition assays (Tables 3 and 4). As to the method: (§1) These were performed on cultures grown in liquid AMM with 5 mM urea as nitrogen source for a total of 6.5 h at 37 °C ([Brownlee & Arst, 1983]). Urea was used as it (i) is a neutral nitrogen source, neither inducing nor repressing nitrate transport, (ii) has been used routinely in the past and (iii) permitted direct comparison with previously published results. […] Transporter activity was induced by the addition of 10 mM sodium nitrate 100 min prior to assay as described previously ([Brownlee & Arst, 1983]). Assays were carried out in triplicate, generally at pH 6.5, on three independently grown cultures for each strain and expressed as nmol nitrate removed from the medium min^ − 1 (mg dried mycelium)^ − 1, as discussed before ([Brownlee & Arst, 1983]; [Kinghorn et al., 2005]; [Unkles et al., 2012]). Both carbonic acid and bicarbonate chemical species can occur at pH 6.5. Thus potential inhibition of nitrate transport by carbonic acid/bicarbonate was tested at pH 6.5 and bicarbonate at pH 8.3.
(§2) To effectively assess net uptake, it is necessary that any export, i.e. simultaneous transport in the reverse direction, is minimal.

Assay [2] concerns NrtB. Type of assay: cell-based, Aspergillus nidulans. The conditions noted are these: for Nitrate uptake ± SE: nrtA747 (NrtB); for nature of inhibition of nitrate transport (Lineweaver–Burk): NrtB (expressed in nrtA1); for Ki: inhibitor concentration reducing net nitrate uptake rate by 50 % of control. How it is done: as §1, §2
(§3) Values of K m and V max were calculated by linear regression of Lineweaver–Burk analyses (1/v against 1/s, where v is net uptake and s is substrate concentration). The kinetic values of nitrate transport by the WT and mutants were compared with those from a previous report ([Unkles et al., 2001]). […] Therefore the kinetic values in the absence of inhibitors from the present study were used as control values. Each K i value was determined by regression of the rates of net nitrate uptake transport versus the range of concentrations of a particular inhibitor: linear or nonlinear regression was used, depending on which type provided the highest r ^2 value. Calculated from each regression was the concentration of the inhibitor that reduced net nitrate uptake rate by 50 % of the control (without inhibitor) rate, which was assessed as the K i value. Lineweaver–Burk analyses were carried out to determine the nature of the inhibition of nitrate transport for each inhibitor.

The test system of assay [3] is A. nidulans WT and mutant strains. It is filed as cell-based, Aspergillus nidulans. The conditions noted are these: for growth stunting on solid AMM: up to 100 mM, 1 mM nitrate (or proline) as sole nitrogen source, data not shown. How it is done: (§4) Fungal growth tests were carried out in standard Petri dishes containing defined Aspergillus minimal medium (AMM) agar ([Cove, 1976]), with sodium nitrate or proline as the sole nitrogen source, at 1 or 10 mM concentration. Strains were tested for inhibition by bicarbonate, formate, oxalate, chlorite, sulphite (all purchased as the sodium salt), chlorate (potassium salt), malonate (acid form) or caesium (chloride salt). Stock aqueous solutions of inhibitors were adjusted to pH 6.5 and prepared immediately before use. It should be noted that at pH 6.5, bicarbonate is in approximately 50 % equilibrium with carbonic acid. […] Cultures were incubated routinely at 37 °C for 48 h, and the growth response was scored.
(§5) Each treatment was carried out in five replicates. […] As caesium was utilized as a chloride salt, a control for potential inhibition by chloride was assessed, by growth on 100 mM sodium chloride (Fig. 4).
Unlike chlorate, commercial chemical supplies of chlorite typically contain a relatively high percentage (20 %) of contaminants. […] The pH of this solution was adjusted to 6.5 and aliquots incorporated into solid AMM (with nitrate or proline as the nitrogen source) at final concentrations equivalent to those that would be present in agar medium containing 10 mM chlorite (i.e. 1.56 mM sodium chloride, 0.28 mM sodium chlorate, 0.68 mM sodium hydroxide and 0.17 mM sodium carbonate).

Assay [4] has as its target T1, NrtA (Emericella nidulans, UniProt P22152). Description: cell-based. The conditions noted are these: for nature of inhibition of nitrate transport (Lineweaver–Burk): NrtA (expressed in nrtB110). Also noted: mutant nrtB110 (expressing a functional NrtA); endogenous in cells; host or cells: Aspergillus nidulans mycelium, knockout strain nrtB110, nitrate-induced; species or system Aspergillus nidulans. As to the method:
as §1, §2, §3

Assay [5] relates to A. nidulans mutant nrtA1 (functional NrtB). Description: microbe, parasite or virus in culture. It is filed as cell-based, Aspergillus nidulans. As to the method: as §4, §5
For assay [6], the system named is A. nidulans mutant nrtB110 (functional NrtA). In words: microbe, parasite or virus in culture. It is filed as cell-based, Aspergillus nidulans. How it is done:
as §4, §5

In assay [7] the test system is A. nidulans double mutant tbl110 (nrtA747 nrtB110, neither transporter). In words: microbe, parasite or virus in culture. Type of assay: cell-based, Aspergillus nidulans. The conditions noted are these: T110 (neither transporter). How it is done: as §4, §5
Assay [8] has as its system A. nidulans WT strain (NrtA, NrtB). Description: MIC growth test on solid AMM, WT strain. It is filed as cell-based, Aspergillus nidulans. As to the method:
as §4, §5

Another assay has as its target NrtA, NrtB (WT strain). Description: Net nitrate uptake assay and kinetics, WT strain. Type of assay: cell-based, Aspergillus nidulans. Conditions: mean ± SE; for Ki: WT (NrtA, NrtB), inhibitor concentration reducing net nitrate uptake rate by 50 % of control. How it is done: as §1, §2, §3
Assay [9] has as its system NrtB. The conditions noted are these: cited from earlier work.
The next assay concerns A. nidulans WT strain. The conditions noted are these: ref Wang et al., 2007; cited from earlier work.
Assay [10] addresses T1, NrtA. The conditions noted are these: cited from earlier work.
[11] abbreviates: Aspergillus nidulans, 1 mM proline as sole nitrogen source.
Setting [12] is: Aspergillus nidulans, 10 mM nitrate as sole nitrogen source.
[13] abbreviates: Aspergillus nidulans, 10 mM proline as sole nitrogen source.
Where [14] appears, read: nrtB110 (NrtA), 1 mM nitrate as sole nitrogen source.
[15] abbreviates: nrtB110 (NrtA), 1 mM proline as sole nitrogen source.
[16] abbreviates: nrtB110 (NrtA), 10 mM nitrate as sole nitrogen source.
Setting [17] is: nrtB110 (NrtA), 10 mM proline as sole nitrogen source.
[18] abbreviates: pH 6.5, in presence of the anion, control without anion 2.9 ± 0.1.
The mark [19] stands for this setting: nrtB110 (NrtA), pH 6.5, in presence of the anion, control without anion 10.6 ± 1.4.
[20] abbreviates: 1 mM proline as sole nitrogen source.
Where [21] appears, read: 10 mM nitrate as sole nitrogen source.
[22] abbreviates: 10 mM proline as sole nitrogen source.
Where [23] appears, read: nitrate transport, nrtA1 (NrtB), no inhibitor, mean ± SE.
[24] abbreviates: nitrate transport, WT, no inhibitor.
Setting [25] is: nitrate transport, nrtB110 (NrtA), no inhibitor, mean ± SE.

Values after ≈ are worked out from the molar mass of the structure shown. Values joined by “and” are separate entries in the source; they are usually repeats but may differ in a detail not shown here. Equal values may be shown once. Read-outs that look alike come from different tables or passages of the source.

T1 sequence (P22152 whole entry): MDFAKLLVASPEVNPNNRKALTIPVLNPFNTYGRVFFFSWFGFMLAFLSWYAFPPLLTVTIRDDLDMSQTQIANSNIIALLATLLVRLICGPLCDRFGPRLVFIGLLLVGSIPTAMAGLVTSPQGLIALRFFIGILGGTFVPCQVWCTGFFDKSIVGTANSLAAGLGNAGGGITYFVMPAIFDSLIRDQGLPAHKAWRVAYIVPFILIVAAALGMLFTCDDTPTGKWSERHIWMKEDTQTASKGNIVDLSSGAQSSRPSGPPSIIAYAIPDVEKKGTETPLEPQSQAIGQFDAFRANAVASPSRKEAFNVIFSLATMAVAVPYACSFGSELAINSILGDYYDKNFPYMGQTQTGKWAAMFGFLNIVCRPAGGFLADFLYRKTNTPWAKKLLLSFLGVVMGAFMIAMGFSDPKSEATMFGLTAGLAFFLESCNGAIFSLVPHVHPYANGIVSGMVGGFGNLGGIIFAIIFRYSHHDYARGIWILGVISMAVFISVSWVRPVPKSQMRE

With `O=C(O)O` [Bicarbonate, bicarbonate], in assay [1], the “inhibition of nitrate transport / uptake” value was “did not inhibit growth or nitrate uptake”. Besides, the “Nitrate uptake ± SE” value with NrtB [2] (pH 8.3, in presence of the anion, control without anion 1.9 ± 0.7) came out at 1.9 ± 0.3 nmol NO3 min^− 1 mg^− 1; at NrtA [4] (nrtB110 (NrtA), pH 8.3, in presence of the anion, control without anion 0.7 ± 0.4) it was 0.5 ± 0.7 nmol NO3 min^− 1 mg^− 1. Also, the “growth stunting on solid AMM” value in assay [3] is recorded as “no convincing phenotypic evidence of growth stunting”.

Broadly, the Ki is the dissociation constant of the complex between target and ligand, obtained from inhibition or displacement. A lower Ki goes with tighter binding. With `[Cs+]` [Caesium, caesium], the “nature of inhibition of nitrate transport (Lineweaver–Burk)” value in the assay on NrtB [2] is given as “uncompetitive”; in the assay with NrtB [2] (listed as caesium), “uncompetitive inhibition”; at NrtA [4], “non-competitive inhibitor”; at NrtA [4] (listed as caesium) it was “non-competitive inhibition”. The Ki at NrtB [2] (nrtA1 (NrtB), mean ± SE) was 2.6 ± 0.02 mM; at NrtB [2] (nrtA1 (NrtB), mean ± SE, listed as caesium), approximately 3 mM; at NrtA, NrtB (WT strain) it was 45.1 ± 6.1 mM; at NrtA, NrtB (WT strain) (listed as caesium), 45 mM; at NrtA [4] (K i, nrtB110 (NrtA), inhibitor concentration reducing net nitrate uptake rate by 50 % of control, mean ± SE), 55 mM and 54.8 mM. For the same compound, the MIC in assay [5] (Aspergillus nidulans, 1 mM nitrate as sole nitrogen source) is 40 mM; in assay [5] (setting [11]), 80 mM; in assay [5] (setting [12]), 30 mM; in assay [5] (setting [13]) it was 60 mM; in [6] (Aspergillus nidulans), more than 100 mM; in assay [6] (setting [14]) it was more than 100 mM. The MIC in [6] (setting [15]) is more than 100 mM; in [6] (setting [16]) it was more than 100 mM; in assay [6] (setting [17]), more than 100 mM; in [7] (setting [11]), 100 mM; in assay [7] (setting [13]) it was more than 100 mM; in [8] (Aspergillus nidulans, 1 mM nitrate as sole nitrogen source, solid AMM, 37 °C), 100 mM. Further, the MIC in assay [8] (setting [11]) is 80 mM; in [8] (setting [12]), more than 100 mM; in assay [8] (setting [13]), 60 mM.

Take `O=CO` [Formate]: the “inhibition of nitrate transport / uptake” value in assay [1] is recorded as “did not inhibit growth or nitrate uptake”. Also, the entries for the “Nitrate uptake ± SE” value in the assay with NrtB [2] (setting [18]) and on NrtA [4] (setting [19]) were 2.7 ± 0.1 nmol NO3 min^− 1 mg^− 1 and 8.1 ± 0.4 nmol NO3 min^− 1 mg^− 1, respectively. Also, the “growth stunting on solid AMM” value in assay [3] is reported as “no convincing phenotypic evidence of growth stunting”.

As for `O=C(O)CC(=O)O` [Malonate, malonate], the “inhibition of nitrate transport / uptake” value in assay [1] was “did not inhibit growth or nitrate uptake”. Besides, the “Nitrate uptake ± SE” value with NrtB [2] (setting [18]) is recorded as 2.7 ± 0.2 nmol NO3 min^− 1 mg^− 1. In addition, the “growth stunting on solid AMM” value in assay [3] is listed as “no convincing phenotypic evidence of growth stunting”.

Regarding `O=C(O)C(=O)O` [Oxalate], the “inhibition of nitrate transport / uptake” value in assay [1] is recorded as “did not inhibit growth or nitrate uptake”. In addition, the “Nitrate uptake ± SE” value with NrtB [2] (setting [18]) was 2.4 ± 0.1 nmol NO3 min^− 1 mg^− 1; on NrtA [4] (setting [19]), 9.7 ± 0.4 nmol NO3 min^− 1 mg^− 1. Besides, in [3], the “growth stunting on solid AMM” value was “no convincing phenotypic evidence of growth stunting”.

`O=S(O)O` [Sulphite, sulphite]: the MIC in assay [5] (1 mM nitrate as sole nitrogen source) is reported as 15 mM (≈ 1230 µg/mL); in [5] (setting [20]), 15 mM (≈ 1230 µg/mL); in assay [5] (setting [21]) it was 15 mM (≈ 1230 µg/mL); in [5] (setting [22]), more than 25 mM; in assay [6] (setting [14]), 15 mM (≈ 1230 µg/mL); in assay [6] (setting [15]), 15 mM (≈ 1230 µg/mL). For the same compound, the MIC in assay [6] (setting [16]) is given as 15 mM (≈ 1230 µg/mL); in assay [6] (setting [17]) it was more than 25 mM; in assay [7] (setting [20]) it was 15 mM (≈ 1230 µg/mL); in [7] (setting [22]) it was more than 25 mM; in assay [8] (1 mM nitrate as sole nitrogen source, solid AMM, 37 °C) it was 15 mM (≈ 1230 µg/mL); in [8] (setting [20]) it was 15 mM (≈ 1230 µg/mL). Also, the MIC was 15 mM (≈ 1230 µg/mL) in assay [8] (setting [21]) and more than 25 mM in [8] (setting [22]). The “concentration at which growth ceased” value in assay [3] (media with 10 mM nitrate) was 15 mM; in [3] (media with 10 mM proline), more than 25 mM; in assay [3] (media with either 1 mM nitrate or proline), 15 mM.

Turning to `O=[N+]([O-])O` [nitrate], the “K m for nitrate” value was 0.011 mM in the assay on NrtB [9] (ref Unkles et al., 2001) and 0.096 mM on NrtA [10] (ref Unkles et al., 2001). Further, in the assay on A. nidulans WT strain, the “rate of nitrate efflux as % of influx” value was 8%. In addition, the K m worked out at 0.0114 ± 0.0024 mM with NrtB [2] (setting [23]); 0.0571 ± 0.0026 mM with NrtA, NrtB (WT strain) (setting [24]); 0.041 ± 0.0048 mM on NrtA [4] (setting [25]). Moreover, the V max is 3.6 ± 0.2 with NrtB [2] (setting [23]); 14.2 ± 0.8 in the assay on NrtA, NrtB (WT strain) (setting [24]); 9.1 ± 0.8 on NrtA [4] (setting [25]).

As for `O=NO` [nitrite], the “K m for nitrite” value in the assay on NrtB [9] (ref Wang et al., 2008) is 0.011 mM; at NrtA [10] (ref Wang et al., 2008), 0.016 mM.

As to `[Cl-].[Na+]` [sodium chloride], the effect on growth result in assay [3] (100 mM sodium chloride, control for chloride) was “no effect on growth”.

For the compound Carbonic acid/bicarbonate, the “Nitrate uptake ± SE” value in the assay with NrtB [2] (setting [18]) worked out at 2.7 ± 0.1 nmol NO3 min^− 1 mg^− 1; on NrtA [4] (setting [19]), 11.1 ± 0.4 nmol NO3 min^− 1 mg^− 1. Further, in assay [3], the “growth stunting on solid AMM” value is on record as “no convincing phenotypic evidence of growth stunting”.
